The source of these data is patent US20240294499A1, “TARGETED PROTEIN DEGRADATION USING BIFUNCTIONAL COMPOUNDS THAT BIND UBIQUITIN LIGASE AND TARGET MCL-1 PROTEIN” (Captor Therapeutics S.A., priority 2021, published 2024).

The subject of data set [1] is iCELL Cardiomyocytes. Kind of data set: Cardiac safety: caspase 3 and 7 activation (Caspase-Glo 3/7) in iCELL Cardiomyocytes. The format is cell-based. The note with it: for Fold change at 1.2 uM (caspase 3/7 activity in cardiomyocytes): 24 hours incubation, vs DMSO; for activity in caspase activity assay in cardiomyocytes: as opposed to reference compound AZD5991. From the text:
The effect of various compounds of the invention and a reference compound AZD5991 on cardiac safety was investigated by the evaluation of caspase 3 and 7 activation using Caspase-Glo 3/7 Assay (Promega; G8092) in iCELL™ Cardiomyocytes from FUJIFILM Cellular Dynamics (Catalog number: 11713). In the Caspase-Glo® 3/7 Assay, the luminescence (measured as Relative Luciferase Units, RLU) is proportional to the amount of caspase activity present in each sample.
The assay is initiated by thawing and seeding iCell® Cardiomyocytes as specified in the User Guide. After 48 hours, the cells are washed to remove unattached cells and debris and immediately treated with compounds or DMSO diluted in the maintenance medium (FCDI; cat: M1003). Compound concentrations used in this assay: 7 points 1/3 dilution curve starting at 100 uM. After 24 hours of incubation with compounds, caspase activity is measured by the addition of the Caspase-Glo® 3/7 Reagent followed by the luminescence measurement.
The analysis of the results is performed by calculation of the fold change in caspase 3/7 activity at a given compound concentration. Fold change is calculated with the formula: […]
where: • RLU Xi is the Relative Luciferase Units of sample I; • RLU BG is the Background Relative Luciferase Units; • RLU C is the Relative Luciferase Units of Control (DMSO).
The experiments were performed in technical duplicates.

Data set [2] has as its target [MCL-1]-[compound of formula (I)]-[CRBN/DDB1] complex (Homo sapiens, UniProt Q07820+Q96SW2). Kind of data set: AlphaLISA dose response ternary complex formation assay. The format is binding. To be noted: read-out: AlphaLISA dose response Average pEC50 by molecule (converted). The method in brief:
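EC50 comes from dose–response of AlphaLISA luminescence (excitation 680, emission 615 nm), normalised between DMSO background and an internal positive control, with concentrations past the hook point dropped. Ternary complex formed by mixing bead-bound biotin-hMCL-1 and His-CRBN/DDB1 (protein solutions 40 and 200 nM) with compound in 2% DMSO, 30 min, 25 °C.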
(In general: Alpha assays give light when donor and acceptor beads are brought close together.)

Data set [3] has as its system MV-4-11 cells. Nature of the data set: Cell viability assay (CellTiter-Glo), MV-4-11. The format is cell-based. The note with it: Homo sapiens, MV4-11, 24 hours incubation, 1% FBS, read-out: Average pIC50 by molecule MV-4-11 (converted). The method in brief:
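OPM-2, MV-4-11 and ARH-77 cells were grown in medium with 1% FBS and treated with compound in 1/3 dilutions from 30 uM (9–12 points, 0.5% DMSO). Viability was read by CellTiter-Glo luminescence after 24 hours and normalized to DMSO control.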
(In general: ATP-based viability assays read luminescence as a measure of living cells.)

Data set [4] deals with T1, MCL-1 protein (Homo sapiens, UniProt Q07820). Nature of the data set: OPM-2 cells: MCL-1 protein degradation, Simple Western. The class given is cell-based. More on the design: endogenous in cells; host or cells: OPM-2. The note with it: OPM-2 cell line, 6 h treatment, 100 nM compound, vs DMSO. From the text:
The effect of various compounds of the invention and the reference compounds on MCL-1protein degradation in the OPM-2 cell line was investigated, using the degradation assay protocol below.
(§1) OPM-2 cells were maintained in RPMI-1640 medium, supplemented with penicillin/streptomycin and 10% Fetal Bovine Serum (FBS). During the treatment, FBS concentration was reduced to 1%.
(§2) Compound stocks were pre-diluted in DMSO and added directly to the cells growth medium (final DMSO concentration: 0.5%).
(§3) OPM-2 cells were collected, centrifuged (250 rcf, 5 min), resuspended in a growth medium containing 1% FBS and counted. The cell suspension was then adjusted to 1×10^6 cell/ml using a growth medium containing 1% FBS. Afterwards, 0.5×10^6 cells were seeded on 24-well plates in 0.5 mL of medium per well. Immediately after seeding cells, compounds in appropriate concentrations were added to the cell culture medium.
Following the treatment with the compounds, cells were collected from the plates and suspended in a lysis buffer (2% SDS, 50 mM Tris, pH 8.0, 100 U/ml Pierce Universal Nuclease for Cell Lysis, cOmplete EDTA-free Protease Inhibitor Cocktail) and incubated on ice for 45 min.
The following steps, including sample loading, protein separation, immunoprobing or labelling, washes and detection analysis was performed using Jess from ProteinSimple, an automatic system for analyzing protein levels in cell lysates (12-230 kDa Jess or Wes separation module 8×25 capillaries, protein normalization assay, no. SM-PN01-1). The Protein of Interest was detected using MCL-1 (D35A5) Rabbit monoclonal antibody (Cell Signaling, #5453, LOT: 4). Antibody was diluted in a ratio of 1:100 in Antibody diluent.
[%] of protein reduction is calculated in comparison to the cells treated with DMSO, which stand for 0%.
The results for the 6 h treatment with 100 nM compounds are shown in Table 9, using the following labels: • <20% for 0-19% of MCL-1 protein reduction, • ≥20% for 20-39% of MCL-1 protein reduction, • ≥40% for 40-100% of MCL-1 protein reduction.

Data set [5] deals with OPM-2 cells. Nature of the data set: Cell viability assay (CellTiter-Glo), OPM-2. The format is cell-based. To be noted: Homo sapiens, 24 hours incubation, 1% FBS, read-out: Average pIC50 by molecule OPM-2 (converted). From the text: The effect of various compounds of the invention on the viability of OPM-2, MV-4-11 and ARH-77 cell lines was investigated, using the CTG protocol described below.
OPM-2 and MV-4-11 cell lines are derived from multiple myeloma and acute myeloid leukaemia, respectively. Both cell lines are described in the literature as MCL-1 dependent lines, as opposed to lymphoblast-like ARH-77 cell line, which is described as independent of MCL-1 (Tron A E et al. Nat Commun. 2018; 9: 5341; Caenepeel S et al. Cancer Discov. 2018 December; 8(12):1582-1597).
Cells (OPM-2, MV-4-11 or ARH-77) were seeded on […] in a growth medium with FBS reduced to 1%. Next, compound stocks were pre-diluted in DMSO and added directly to the cells growth medium (final DMSO concentration: 0.5%). Compound concentrations used in this assay: 1/3 dilutions starting at 30 uM (9 to 12 points).
After 24 hours of incubation, cell viability was evaluated using CellTiter-Glo Luminescent Cell Viability Assay (Promega, cat #G7572). Luminescence signal was measured using a CLARIOstar Plus Multi-Mode Microplate Reader (574-590 nm).
Results were normalized to DMSO control.

Data set [6] concerns the target T1, MCL-1 protein. Kind of data set: OPM-2 cells: MCL-1 protein degradation, Western blot. The format is cell-based. More on the design: endogenous in cells; host or cells: OPM-2. To be noted: OPM-2 cell line, 6 h treatment, 100 nM compound, vs DMSO.
Excerpt: The effect of various compounds of the invention and the reference compounds on MCL-1 protein degradation in the OPM-2 cell line was investigated, using the degradation assay protocol below.
as §1, §2, §3
Following the treatment with the compounds, cells were collected from the plates and suspended in a lysis buffer (2% SDS, 50 mM Tris, pH 8.0, 100 U/ml Pierce Universal Nuclease for Cell Lysis, complete EDTA-free Protease Inhibitor Cocktail) and incubated on ice for 45 min. The amount of protein was determined via BCA assay, and the equal quantity of each sample was loaded on the precast gel for the protein separation. Following the electrophoresis and transfer to the membrane, the membrane was stained with Ponceau (0.1% (w/v) Ponceau in 5% acetic acid). After total protein detection, the stain was washed out using TBST. After the antibody staining for MCL-1 and α-tubulin, the membranes were washed and signals developed.
Densitometric values for MCL-1 were normalized to total protein level (the Ponceau Staining). [%] of protein reduction is calculated in comparison to the cells treated with DMSO, which stand for 0%.
The results for the 6 h treatment with 100 nM compounds are shown in Table 9, using the following labels: • <30% for 0-29% of MCL-1 protein reduction, • ≥30% for 30-49% of MCL-1 protein reduction, • ≥50% for 50-100% of MCL-1 protein reduction.
For orientation: In western blotting, separated proteins are transferred to a membrane and probed.

The test system of data set [7] is hiPSC-CM (iCELL Cardiomyocytes). Kind of data set: Cardiac safety: hiPSC-CM cell viability assay (CTG). The note with it: viability, CTG assay, treatment until day 14. The class given is cell-based, human. From the text:
The effect of various compounds of the invention and a reference compounds AZD5991 and MIK665 on cardiac safety was investigated by the evaluation of viability with CTG assay (Promega; cat #G7572) in iCELL™ Cardiomyocytes from FUJIFILM Cellular Dynamics (Catalog number: 11713).
Cells were thawed, counted using an automated cell counter (TC20, Bio-Rad) and seeded in 96 well plates (Greiner-BioOne; 655098) previously coated with 0.1% gelatin (Sigma-Aldrich; G1890) using Plating Medium (#M1001) following the instructions of the iCELL cardiomyocytes User Guide. Forty ml of Plating Medium was used to equally distribute the cells in four 96 well plates. Cells were then placed in the incubator at 37° C., 5% CO2 and left undisturbed for 48 hours. Compounds were serially diluted in DMSO and then further diluted to final assay concentration using maintenance medium (#M1003). Final DMSO concentration was 0.5%. Forty eight hours after plating, non-adherent cells and debris were washed as described in the User Guide. Plating medium was then replaced with maintenance medium containing diluted compounds or DMSO (as control). Medium was then changed every 2 days with fresh medium containing compounds or DMSO until the end of the treatment. On day 14, only medium without compounds was used immediately before the CTG assay. Luminescence signal was measured using a CLARIOstar Plus Multi-Mode Microplate Reader (574-590 nm).

The subject of data set [8] is iPSC-derived cardiomyocytes (iPSC-CMs). Kind of data set: caspase 3/7 activity in iPSC-derived cardiomyocytes. The class given is cell-based. To be noted: 100 μM, FIG. 5.

[MCL-1]-[compound of formula (I)]-[CRBN/DDB1] complex, sequence (Q07820 whole entry): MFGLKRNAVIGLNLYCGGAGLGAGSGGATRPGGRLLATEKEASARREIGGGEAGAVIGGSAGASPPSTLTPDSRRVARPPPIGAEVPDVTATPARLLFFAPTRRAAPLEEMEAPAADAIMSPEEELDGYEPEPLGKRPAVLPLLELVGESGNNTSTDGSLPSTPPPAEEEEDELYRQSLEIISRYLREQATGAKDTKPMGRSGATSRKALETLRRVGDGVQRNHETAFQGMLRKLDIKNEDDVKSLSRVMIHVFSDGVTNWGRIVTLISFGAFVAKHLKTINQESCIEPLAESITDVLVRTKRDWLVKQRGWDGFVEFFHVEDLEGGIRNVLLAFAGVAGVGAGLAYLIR
[MCL-1]-[compound of formula (I)]-[CRBN/DDB1] complex, sequence (Q96SW2 whole entry): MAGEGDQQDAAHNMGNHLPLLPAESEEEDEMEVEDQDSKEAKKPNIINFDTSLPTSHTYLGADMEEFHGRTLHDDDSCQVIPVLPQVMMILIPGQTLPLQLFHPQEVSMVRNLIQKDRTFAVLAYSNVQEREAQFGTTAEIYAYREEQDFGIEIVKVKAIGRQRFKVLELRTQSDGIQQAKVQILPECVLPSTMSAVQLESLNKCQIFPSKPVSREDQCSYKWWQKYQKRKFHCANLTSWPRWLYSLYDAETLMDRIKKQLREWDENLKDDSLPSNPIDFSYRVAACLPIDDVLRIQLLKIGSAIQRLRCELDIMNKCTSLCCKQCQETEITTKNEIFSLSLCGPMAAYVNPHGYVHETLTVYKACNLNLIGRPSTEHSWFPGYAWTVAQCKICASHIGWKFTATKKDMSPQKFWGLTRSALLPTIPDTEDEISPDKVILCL
[MCL-1]-[compound of formula (I)]-[CRBN/DDB1] complex, sequence (Q16531 whole entry partner): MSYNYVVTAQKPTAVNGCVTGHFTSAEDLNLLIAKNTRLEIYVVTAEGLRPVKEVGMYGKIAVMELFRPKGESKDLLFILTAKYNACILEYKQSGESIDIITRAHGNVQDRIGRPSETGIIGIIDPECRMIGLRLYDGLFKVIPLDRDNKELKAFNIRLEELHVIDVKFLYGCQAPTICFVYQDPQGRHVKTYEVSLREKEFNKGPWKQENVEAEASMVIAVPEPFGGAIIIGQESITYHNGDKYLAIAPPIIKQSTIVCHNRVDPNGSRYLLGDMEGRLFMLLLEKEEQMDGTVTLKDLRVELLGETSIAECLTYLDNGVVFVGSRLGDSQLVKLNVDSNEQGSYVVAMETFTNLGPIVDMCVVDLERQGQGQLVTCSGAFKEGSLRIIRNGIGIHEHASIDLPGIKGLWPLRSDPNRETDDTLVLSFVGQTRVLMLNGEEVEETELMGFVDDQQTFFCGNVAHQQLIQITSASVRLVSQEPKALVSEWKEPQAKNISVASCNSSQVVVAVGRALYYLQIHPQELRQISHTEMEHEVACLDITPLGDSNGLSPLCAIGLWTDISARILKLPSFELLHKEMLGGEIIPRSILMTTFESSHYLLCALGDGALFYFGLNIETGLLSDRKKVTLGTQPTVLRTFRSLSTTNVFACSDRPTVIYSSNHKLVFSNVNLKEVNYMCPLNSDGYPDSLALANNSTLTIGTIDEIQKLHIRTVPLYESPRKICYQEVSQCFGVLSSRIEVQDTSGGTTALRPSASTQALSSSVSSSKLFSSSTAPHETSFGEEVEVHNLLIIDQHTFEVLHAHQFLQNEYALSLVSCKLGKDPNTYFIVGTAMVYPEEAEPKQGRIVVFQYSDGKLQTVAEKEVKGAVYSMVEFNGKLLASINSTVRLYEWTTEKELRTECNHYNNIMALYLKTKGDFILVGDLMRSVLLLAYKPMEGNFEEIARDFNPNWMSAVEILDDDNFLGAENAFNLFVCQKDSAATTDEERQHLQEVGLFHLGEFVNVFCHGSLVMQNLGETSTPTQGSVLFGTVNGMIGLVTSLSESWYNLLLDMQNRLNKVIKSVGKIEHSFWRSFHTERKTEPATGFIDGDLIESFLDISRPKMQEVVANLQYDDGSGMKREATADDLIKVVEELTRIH
T1 sequence (Q07820 whole entry): as the sequence (Q07820 whole entry) above

On to `Cc1nn(C)c(C)c1-c1c(Cl)ccc2c(CCCOc3cccc4ccccc34)c(C(=O)O)n(CCN3CCN(C(=O)Cn4c(C)nc5c(C(=O)NC6CCC(=O)NC6=O)cccc54)CC3)c12` (stereo not drawn) [Compound 266, 6-chloro-1-{2-[4-(2-{4-[(2,6-dioxopiperidin-3-yl)carbamoyl]-2-methyl-1H-1,3-benzodiazol-1-yl}acetyl)piperazin-1-yl]ethyl}-3-[3-(naphthalen-1-yloxy)propyl]-7-(1,3,5-trimethyl-1H-pyrazol-4-yl)-1H-indole-2-carboxylic acid], for which the “Fold change at 1.2 uM (caspase 3/7 activity in cardiomyocytes)” value (“Fold change at 1.2 uM” for short) in data set [1] was not above 1.5 ± 0.2. The “activity in caspase activity assay in cardiomyocytes” value (from here on “activity in caspase activity assay”) in data set [1] is reported as “little to no activity”. Further, the EC50 in data set [2] was less than 100 nM. Besides, the IC50 in data set [3] is not above 100 nM; in data set [5], not above 316 nM. The “Simple Western, % of protein reduction” value in data set [4] is recorded as not below 40%.

With `Cc1nn(C)c(C)c1-c1c(Cl)ccc2c(CCCOc3cccc4cc(F)ccc34)c(C(=O)O)n(CCN3CCN(C(=O)COc4cccc5c4C(=O)N(C4CCC(=O)NC4=O)C5=O)CC3)c12` (stereo not drawn) [Compound 214, 6-chloro-1-{2-[4-(2-{(2-(2,6-dioxopiperidin-3-yl)-1,3-dioxo-2,3-dihydro-1H-isoindol-4-yl]oxy}acetyl)piperazin-1-yl]ethyl}-3-{3-[(6-fluoronaphthalen-1-yl)oxy]propyl}-7-(1,3,5-trimethyl-1H-pyrazol-4-yl)-1H-indole-2-carboxylic acid], in data set [1], the “Fold change at 1.2 uM” value is reported as not above 1.5 ± 0.2. In addition, the “activity in caspase activity assay” value in data set [1] is given as “little to no activity”. In data set [2], the EC50 is less than 10 nM. Further, the “Western blot, % of protein reduction” value in data set [6] is recorded as not below 50%. The IC50 in data set [3] was not above 100 nM; in data set [5], not above 316 nM. Also, the “Simple Western, % of protein reduction” value in data set [4] is recorded as not below 40%.

With `Cc1c2c(nn1C)CSCc1cc(n(C)n1)CSc1cc(c3ccccc3c1)OCCCc1c(C(=O)O)n(C)c3c-2c(Cl)ccc13` [AZD5991, reference compound], the “Fold change at 1.2 uM” value in data set [1] is recorded as 2.9 ± 0.5. Further, the IC50 in data set [7] (Homo sapiens, Cardiomyocyte, 336 h, read-out: Average pIC50 by molecule hiPSC-CM (converted)) is 631 nM.

For the molecule `Cc1nn(C)c(C)c1-c1c(Cl)ccc2c(CCCOc3cccc4ccccc34)c(C(=O)O)n(CCN3CCN(C(=O)COc4cccc5c4CN(C4CCC(=O)NC4=O)C5=O)CC3)c12` (stereo not drawn) [Compound 206, 6-chloro-1-(2-(4-(2-((2-(2,6-dioxopiperidin-3-yl)-1-oxoisoindolin-4-yl)oxy)acetyl)piperazin-1-yl)ethyl)-3-(3-(naphthalen-1-yloxy)propyl)-7-(1,3,5-trimethyl-1H-pyrazol-4-yl)-1H-indole-2-carboxylic acid], in data set [1], the “Fold change at 1.2 uM” value is not above 1.5 ± 0.2. The “activity in caspase activity assay” value in data set [1] is recorded as “little to no activity”. Besides, the EC50 in data set [2] is less than 100 nM. Further, in data set [6], the “Western blot, % of protein reduction” value is not below 50%. Further, the IC50 in data set [3] is not above 100 nM; in data set [5], not above 316 nM. Besides, the “Simple Western, % of protein reduction” value in data set [4] is on record as not below 40%.

In the case of MIK665 [reference compound], in data set [7], the “Average pIC50 by molecule hiPSC-CM” value amounted to 6.9.

On to `Cc1c2c(nn1C)CSCc1cc(n(C)n1)CSc1cc(c3ccccc3c1)OCCCc1c(C(=O)O)n(C)c3c-2c(Cl)ccc13` [AZD-5991], for which the “cell death in iPSC-CMs (caspase 3/7 assay, concentration point not displayed)” value in data set [8] was “excessive cell death”.
